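Cells were grown in 96-well plates and exposed to each compound for 48 hours at five concentrations; endpoints were interpolated linearly between bracketing concentrations, or set to the highest concentration if not reached. At the GI50, growth is halved. The concentration for full growth arrest is given as TGI.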

12 compounds from PubChem BioAssay (NCI) can be followed below.

Holding throughout (assay): inhibition of tumour cell growth, NCI panel, 48 h
Experiment [1] relates to NCI-H460 lung.
For experiment [2], the system named is SK-MEL-2 melanoma.
Experiment [3] has as its system CCRF-CEM leukemia.
Experiment [4] deals with MDA-MB-231 breast.
For experiment [5], the system named is KM12 colon.
The subject of experiment [6] is SK-MEL-5 melanoma.
For experiment [7], the system named is NCI-H23 lung.
Experiment [8] deals with OVCAR-5 ovarian.
The subject of experiment [9] is HT29 colon.
Experiment [10] concerns EKVX NSCLC.

`C#Cc1ccc(-n2c(/C=C/c3cc(OC)c(OC)c(OC)c3)nc3ncccc3c2=O)cc1`: the GI50 in experiment [1] was 4.11 µM; in experiment [2] it was 4.54 µM; in [3], 4.9 µM; in experiment [4], 5.53 µM; in [5], 3.32 µM; in experiment [6], 1.78 µM. The results for the GI50 in experiment [7], in experiment [8] and in [9] were 17.3 µM, over 100 µM and 3.92 µM, respectively. Moreover, the TGI was 25.3 µM in [1]; 22.1 µM in [2]; over 100 µM in [3]; over 100 µM in experiment [4]; 12.8 µM in experiment [5]; 4.4 µM in [6]. For the same compound, the TGI in experiment [7] was over 100 µM; in [8], over 100 µM; in [9], 15.1 µM.

Regarding `COC(=O)C1CCC(=NC2c3ccccc3-c3ccccc32)N1` (centres undefined), the TGI in [10], in [1], in experiment [2], in experiment [3], in experiment [5] and in experiment [7] was over 100 µM each time. Also, the TGI in experiment [8] and in experiment [9] was over 100 µM throughout.

Take `COC(=O)C(=O)C(C(=O)C(=O)Nc1ccccc1C(N)=O)c1nc2ccc(C(=O)c3ccccc3)cc2[nH]c1=O` (centres undefined): the TGI in [10], in [1], in experiment [2], in experiment [3], in experiment [5] and in experiment [6] was over 100 µM throughout. Moreover, the TGI in [7], in experiment [8] and in [9] was over 100 µM in each case.

Take `CC(C)C[C@H](NC(=O)[C@@H](O)[C@H](N)Cc1ccccc1)C(=O)O`: the TGI in experiment [1], in experiment [2], in experiment [3], in experiment [4], in experiment [5] and in [6] was over 100 µM each time. For the same compound, the TGI in [7], in [8] and in experiment [9] was over 100 µM throughout.

`C/C(=N\NC(=S)N1CCC(C2CCN(C(=S)N/N=C(\C)c3ccccn3)CC2)CC1)c1ccccn1`: the TGI in experiment [10], in experiment [1], in experiment [3], in experiment [5], in [6] and in [7] was over 100 µM each time. Further, the TGI in [8] and in experiment [9] was over 100 µM throughout.

Regarding `Clc1ccccc1C1=NN(c2ccccc2)C2c3cc(Br)ccc3OCC12` (centres undefined), the TGI in experiment [10], in experiment [1], in [2], in [3], in experiment [5] and in [7] was over 100 µM throughout. For the same compound, the TGI in experiment [8] and in experiment [9] was over 100 µM in each case.

Take `CC[C@@]1(O)C(=O)OCc2c1cc1n(c2=O)Cc2cc3c(NC(C)=O)c(O)ccc3nc2-1`: the GI50 in experiment [10] is 81.4 µM; in [1], 0.288 µM; in experiment [2] it was 17.8 µM; in [3], 0.0542 µM; in experiment [5] it was 14.4 µM; in experiment [6], 2.08 µM. Moreover, the figures for the GI50 in [7], in experiment [8] and in experiment [9] were 0.762 µM, 4.19 µM and 13.7 µM, respectively. For the same compound, the TGI was over 100 µM in [10]; 4.24 µM in [1]; 53.5 µM in experiment [2]; 1.07 µM in experiment [3]; over 61.3 µM in [5]; 8.97 µM in [6]. For the same compound, the TGI in experiment [7] is 9.15 µM; in [8], over 100 µM; in [9], over 77.5 µM.

In the case of `O=C1c2ccccc2C(=O)c2c1ccc1c3ccccc3n(Cc3ccccc3)c21`, the TGI in experiment [10], in experiment [1], in experiment [2], in experiment [3], in experiment [5] and in experiment [6] was over 100 µM in each case. Also, the TGI in experiment [8] and in experiment [9] was over 100 µM in each case.

Regarding `O=C1/C(=C/c2ccccc2)CN(C(=O)OCC(Cl)(Cl)Cl)C/C1=C\c1ccccc1`, the TGI was found to be 5.66 µM in experiment [1]; 23.5 µM in experiment [2]; 13.5 µM in [3]; 3.74 µM in [5]; 2.95 µM in experiment [6]; 9.46 µM in experiment [7]. The TGI in [8] is 16.8 µM; in experiment [9], 3.63 µM.

On to `O=C1c2cccc3cccc(c23)C(=O)N1CCCN1CCN(CCCN2C(=O)c3cccc4cccc(c34)C2=O)CC1`, for which the TGI in experiment [10], in experiment [1], in experiment [2], in [3], in experiment [5] and in experiment [6] was over 100 µM each time. Further, the TGI in experiment [7], in experiment [8] and in experiment [9] was over 100 µM throughout.

Take `CCOC(=N)CC(=O)NC(C)c1ccccc1` (centres undefined): the TGI in [10], in experiment [1], in experiment [2], in [3], in experiment [5] and in [6] was over 100 µM throughout. For the same compound, the TGI in experiment [7], in experiment [8] and in experiment [9] was over 100 µM each time.

For the compound `COc1ccc(-n2nc(C)c3c2N(C)C2(C)C[C@@H]4C3(C)[C@@H]3CC4(C2)N(C)c2c(c(C)nn2-c2ccc(OC)cc2)[C@H]3C)cc1` (some centres undefined), the GI50 in experiment [1] is 3.69 µM; in experiment [2], 7.29 µM; in [4], 6.35 µM; in experiment [7], 18.7 µM; in experiment [8], over 100 µM; in experiment [9], 3.39 µM. Further, the TGI was over 100 µM in [1]; 23.3 µM in [2]; 48.3 µM in experiment [4]; 99.9 µM in experiment [7]; over 100 µM in experiment [8]; over 100 µM in experiment [9].
